Data published in patent US20080300222A1, “Phosphoantigen Salts Of Organic Bases And Methods For Their Crystallization” (Innate Pharma, priority 2005, published 2008).
Structures can show the parent of a compound that is named as a salt. Values belong to the compound of their own block, whether it stands above or below them.

Key:
[1] = Chemical stability on storage, evaluated by HPAEC analysis
[2] = Thermal stability by DSC and TG/DSC analysis
Protocol: DSC analyses were carried out by using a SETARAM 141 Differential Scanning Calorimeter (SETARAM, 69300 Caluire, France). No purge gas was used. The reference material was an empty aluminum pan without cap. The samples were weighed in open aluminum pans, then placed in the analyzer. The analyses were performed within various temperature ranges using a 2°.min^−1 heating rate. SETARAM ACQUISITION Module software (v. 1.4) was used as control software and data processing was performed by using the SETARAM DATA PROCESSING Module software (v. 1.39).
TG/DSC measurements were carried out by using a NETZSCH STA 449C Jupiter Thermogravimetric Analyzer (NETZSCH, D-95100 Selb, Germany) equipped with a low temperature furnace. The purge gas used was helium (gas flow=60 mL/min) and the reference material was an empty aluminum pan without cap. The samples were weighed in open aluminum pans, then placed in the analyzer. The analyses were performed within various temperature ranges using a 2°.min^−1 heating rate. PROTEUS software was used for the acquisition and data processing (v. 4.7.0).

[3] = DVS hygroscopicity and moisture measurement, second procedure; type: physicochemical; settings: 22° C.
Protocol: Moisture sorption isotherms of the crystalline phases were obtained by using a DVS-1 automated water sorption analyzer (Surface Measurements Systems, Alperton, Middlesex, United Kingdom). The reference material was an empty glass pan and the total gas flow was 200 sccm·min^−1 (Standard Cubic Centimeters per minute). Temperature of analysis was 22° C. For each measurement, precisely ca. 15 mg of the sample were weighed in a glass pan beforehand allowed for the tare, then placed in the analyzer.
As a first stage, dry nitrogen (0% R.H) was applied until constant weight of the sample in order to eliminate adsorbed or absorbed water (potential dehydration). Then, mass variations were recorded while R.H. was increased by steps of 10% R.H. The automated analyzer was allowed to start the following step as soon as the mass variation of the sample was less than 5.10^−4 mg·min^−1. The upper limit was adjusted below the deliquescence of the compound and never exceeded 98% R.H. This second stage was afterward followed by a stepped decrease of R.H. down to 0% R.H. This overall procedure constitutes a ‘Full cycle’ analysis. Several successive full cycles can be applied to the same sample.
DVSWin (v 2.18) was used as control and data collection software whereas data processing was performed by using DVS Standard Analysis Suite (v 4.3).
Further parameters used in DVS procedures are as follows: • Protocole Dynamic Vapour Sorption/Appareil ‘Surface Measurements Systems • Automated Water Sorption Analyser’/model: DVS-1 • Analysis method: • step mode, • Temperature: […] • number of steps, • step dm/dt<0.0005 (mg/min) • First stage R.H.=0% • Last Stage R.H.=98% • Half cycle or Full cycle (or several successive full cycles) • dm/dt window: 5 • Minimum Stage: 20 min • Maximum Stage: 120 min • Total Gaz Flow: 200 • Nitrogen: 200 Bars, H2O<3 ppm, O2<2 ppm, Ref. Azote N50 B50*0 • Initial sample weight: • Software—data collection and data processing • DVSWin v2.18 (control software), • DVS Standard Analysis Suite v4.3 (analysis software).]

[4] = DVS hygroscopicity and moisture measurement, first procedure; type: physicochemical
Protocol: Moisture sorption isotherms of amorphous BrHPP was obtained by using an automated water sorption analyzer. Temperature of analysis was 20° C. For each measurement, precisely ca. 25 mg of the sample were weighed in a pan beforehand allowed for the tare, then placed in the analyzer.
After a stabilization stage at 0% R.H. (R.H. stands for Relative Humidity), mass variations were recorded while R.H. was increased by steps of 20% R.H. The upper limit was adjusted to 80% R.H. This second stage was afterward followed by a stepped decrease of R.H. down to 0% R.H. This overall procedure constitutes a ‘Full cycle’ analysis. Several successive full cycles can be applied to the same sample.

anionic purity of the sample over the storage period ([1]; glass vial, room temperature (20-25° C.), ambient atmosphere (50-70% RH), at least 5 months, HPAEC): 99.5%±0.2%
period over which the compound was found to be stable ([1]; stored in a glass vial at room temperature (20-25° C.) and ambient atmosphere (50-70% Relative Humidity)): at least 5 months
Compound: CC(O)(CBr)CCOP(=O)(O)OP(=O)(O)O (stereo not shown) [3-(bromomethyl)-3-butanol-1-yl diphosphoric acid, diquininium salts]

temperature of the fusion-degradation event (thermal stability) ([2]; DSC, non solvated crystalline form): above 146 °C
reversible and reproducible mass variation, (de)hydration (Rac)-Mix-I / (Rac)-Mix-III ([3]; R.H. in the range of 50%-70%): 6.1%
cumulated mass variations ([3]; between 0% and 50% R.H.): < 0.4%
cumulated mass variations ([3]; high relative humidity (up to 90%)): < 0.2%
Compound: CC(O)(CBr)CCOP(=O)(O)OP(=O)(O)O (racemic) [BrHPP benzathin salt (Rac)-Mix-I, 3-(bromomethyl)-3-butanol-1-yl diphosphoric acid, N,N′-dibenzylethylenediammonium salts]

sensitivity to atmospheric water ([4]; even for low R.H.): very sensitive to atmospheric water
deliquescence ([4]; high relative humidities (≧80% R.H.), 20° C., mass not stabilized after 2300 minutes): becomes deliquescent
thermal behaviour in TG/DSC analysis ([2]; fluctuations of DSC signal and continuous mass loss, even for temperatures close to ambient): undergoes chemical degradations
degradation on storage ([1]; 3 months, room temperature (about 25° C.), in contact with ambient atmosphere): 50%
Compound: CC(O)(CBr)CCOP(=O)(O)OP(=O)(O)O (racemic) [BrHPP sodium salt, reference compound]
